In ChEMBL document CHEMBL3785050, “Synthesis, biological evaluation and molecular docking studies of 2-piperazin-1-yl-quinazolines as platelet aggregation inhibitors and ligands of integrin αIIbβ3” (Bioorg Med Chem Lett, 2016):

Legend:
[1] = Antiplatelet activity in human platelet rich plasma assessed as inhibition of ADP-induced platelet aggregation by Born's method; type: functional
[2] = molecular target: Integrin alpha-IIb/beta-3 (Homo sapiens, UniProt P05106+P08514); test: Inhibition of FITC-labelled fibrinogen binding to integrin alpha2b beta3 receptor in human platelet cells; type: cell-based
Chain of Integrin alpha-IIb/beta-3 (P05106 27-788 limits assumed): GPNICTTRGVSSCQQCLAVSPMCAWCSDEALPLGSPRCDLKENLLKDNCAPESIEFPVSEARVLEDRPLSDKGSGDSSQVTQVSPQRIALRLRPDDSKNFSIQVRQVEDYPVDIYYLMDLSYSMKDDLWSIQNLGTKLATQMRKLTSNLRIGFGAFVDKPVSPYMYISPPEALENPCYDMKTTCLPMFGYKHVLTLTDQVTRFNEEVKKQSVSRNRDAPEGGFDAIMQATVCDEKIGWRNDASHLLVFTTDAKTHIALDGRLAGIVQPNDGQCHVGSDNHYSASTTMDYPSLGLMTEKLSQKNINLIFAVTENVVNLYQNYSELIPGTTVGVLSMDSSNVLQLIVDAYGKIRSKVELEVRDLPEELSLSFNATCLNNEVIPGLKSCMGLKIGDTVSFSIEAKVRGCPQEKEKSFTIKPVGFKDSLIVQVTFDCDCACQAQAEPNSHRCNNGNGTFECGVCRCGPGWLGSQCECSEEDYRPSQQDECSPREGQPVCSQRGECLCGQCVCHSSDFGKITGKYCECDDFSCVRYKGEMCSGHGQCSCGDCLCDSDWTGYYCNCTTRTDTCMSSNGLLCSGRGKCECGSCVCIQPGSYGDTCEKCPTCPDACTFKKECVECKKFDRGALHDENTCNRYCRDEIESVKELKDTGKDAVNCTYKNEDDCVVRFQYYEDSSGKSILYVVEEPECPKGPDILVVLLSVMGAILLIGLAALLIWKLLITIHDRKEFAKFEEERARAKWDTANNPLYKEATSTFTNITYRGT
Chain of Integrin alpha-IIb/beta-3 (P08514 32-887 limits assumed): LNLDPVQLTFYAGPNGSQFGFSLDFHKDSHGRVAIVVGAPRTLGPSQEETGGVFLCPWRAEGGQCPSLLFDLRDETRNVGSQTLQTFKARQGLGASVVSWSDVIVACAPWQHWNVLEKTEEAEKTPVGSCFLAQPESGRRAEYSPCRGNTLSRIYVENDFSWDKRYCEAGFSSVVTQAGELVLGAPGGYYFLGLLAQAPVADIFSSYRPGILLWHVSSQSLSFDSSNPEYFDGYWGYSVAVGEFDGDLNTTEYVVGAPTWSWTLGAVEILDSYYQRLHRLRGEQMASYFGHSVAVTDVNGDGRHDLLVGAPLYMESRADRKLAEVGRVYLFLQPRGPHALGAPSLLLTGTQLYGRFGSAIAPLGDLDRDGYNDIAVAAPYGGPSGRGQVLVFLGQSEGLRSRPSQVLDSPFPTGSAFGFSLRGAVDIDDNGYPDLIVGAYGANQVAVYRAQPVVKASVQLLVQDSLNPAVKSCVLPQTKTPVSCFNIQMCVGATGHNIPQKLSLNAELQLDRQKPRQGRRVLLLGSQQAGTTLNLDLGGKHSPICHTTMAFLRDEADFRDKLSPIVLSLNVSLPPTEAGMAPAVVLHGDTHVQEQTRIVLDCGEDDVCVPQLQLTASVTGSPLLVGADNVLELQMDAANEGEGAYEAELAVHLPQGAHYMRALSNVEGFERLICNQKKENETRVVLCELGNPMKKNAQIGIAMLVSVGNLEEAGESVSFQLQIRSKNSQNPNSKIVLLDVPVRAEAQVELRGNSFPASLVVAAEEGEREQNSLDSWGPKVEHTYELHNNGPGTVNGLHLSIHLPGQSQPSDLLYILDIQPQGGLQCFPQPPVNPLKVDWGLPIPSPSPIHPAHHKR
Chain of Integrin alpha-IIb/beta-3 (P08514 891-1039 limits assumed): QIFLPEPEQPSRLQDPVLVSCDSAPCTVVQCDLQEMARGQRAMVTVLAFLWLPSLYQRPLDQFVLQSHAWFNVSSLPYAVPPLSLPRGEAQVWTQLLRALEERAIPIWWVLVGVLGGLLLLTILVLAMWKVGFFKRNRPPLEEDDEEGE

Structure (SMILES) | IC50 [1] [nM] | IC50 [2] [nM]
NCCCC(=O)Nc1ccc2nc(N3CCNCC3)nc(-c3ccccc3)c2c1 | 49 | –
O=C(Nc1ccc2nc(N3CCNCC3)[nH]c(=O)c2c1)c1ccc(N2CCNCC2)cc1 | 1300 | 20
NCCC(=O)Nc1ccc2nc(N3CCNCC3)nc(-c3ccccc3)c2c1 | 570 | –
NCCCCCC(=O)Nc1ccc2nc(N3CCNCC3)nc(-c3ccccc3)c2c1 | 58000 | –
NCCCCC(=O)Nc1ccc2nc(N3CCNCC3)nc(-c3ccccc3)c2c1 | 48000 | –
O=C(Nc1ccc2nc(N3CCNCC3)[nH]c(=O)c2c1)c1ccc(C2CCNCC2)cc1 | 570 | –
NCC[C@H](NC(=O)OCc1ccccc1)C(=O)Nc1ccc2nc(N3CCNCC3)[nH]c(=O)c2c1 | 10 | 1.57
CCCCS(=O)(=O)N[C@@H](Cc1ccc(OCCCCC2CCNCC2)cc1)C(=O)O [TIROFIBAN] | 30 | –

Further lines, results first:

IC50 [1] [nM] | IC50 [2] [nM] | Structure (SMILES)
170 | 55 | CCC(=O)Nc1ccc2nc(N3CCNCC3)[nH]c(=O)c2c1
1300 | – | NCCCCCC(=O)Nc1ccc2nc(N3CCNCC3)[nH]c(=O)c2c1
19 | 1.53 | NC[C@H](NC(=O)OCc1ccccc1)C(=O)Nc1ccc2nc(N3CCNCC3)[nH]c(=O)c2c1
1900 | – | NCc1ccc(C(=O)Nc2ccc3nc(N4CCNCC4)[nH]c(=O)c3c2)cc1
40 | 1.8 | CC(C)COC(=O)N[C@@H](CN)C(=O)Nc1ccc2nc(N3CCNCC3)[nH]c(=O)c2c1
60 | – | CCOC(=O)N[C@@H](CN)C(=O)Nc1ccc2nc(N3CCNCC3)[nH]c(=O)c2c1
1400 | – | NCCCCC(=O)Nc1ccc2nc(N3CCNCC3)[nH]c(=O)c2c1
720 | – | CCC(=O)Nc1ccc2nc(N3CCNCC3)nc(-c3ccccc3)c2c1
